This note sets out measurements from patent US8637467B2, “Pharmaceutical being used for treating cancer and fibrosis disease and the composition and uses thereof” (Wuxi MTLH Biotechnology Co., Ltd., priority 2008, dated 2014).

The subject of test [1] is human stomach cancer SGC-7901. The test is described as follows: Human stomach cancer SGC-7901 xenograph nude mice. Format: in vivo. As to conditions: positive control, 25 mg/kg, once a week, 3 weeks. As to the method: (§1) Experimental animals: Female BALB/cA nude mice, age 35-40 days, weight 18-22 g, provided by Shanghai Silaike Experimental Animal Co. Ltd., certificate number: SOCK (Shanghai) 2007-0005.
(§2) The tumor of xenograph nude mice grew to 100˜300 mm^3. Tumor mice were divided into different groups for drug testing. In the experiment below, there were 12 nude mice in negative control group, and 6 nude mice in the group with tested drug. Tumor diameter was measured three times each week, and mice weight was measured at the same time.
(§3) T/C (relative tumor inhibition rate) % was calculated as below: • (1) tumor volume, TV, calculated as below: TV=½×a×b^2 • A and b are length and width. • (2) relative tumor volume, RTV, calculated as below: RTV=TVt/TV0. • TV0 ? is tumor volume at the beginning of drug use (d0), TVt is tumor volume at later time point. • (3) relative tumor inhibition rate T/C (%), calculate as below:
(§4) [formula] TRTV: treatment group RTV; CRTV: negative control RTV
Peptide SEQ ID No:1 was given through tail vain (IV), at dosing of 1 mg/kg, 0.5 mg/kg, 0.25 mg/kg, 0.125 mg/kg, and 0.0625 mg/kg, 6 times a week. 5-FU was positive control, at dosing of 25 mg/kg, once a week. Negative control was given saline solution. The xenograph nude mice were treated for 3 weeks.

Test [2] deals with Rat CC14 liver damage model. The test can be described thus: Rat CC14 liver damage model (chronic liver fibrosis). It counts as in vivo, SD rat. Also on record: Liver parameters: unit not given here. The conditions noted are these: Gan-li-xin 25 mg/kg iv, once a day for 2 weeks from week 5. As to the method: To evaluate the protective effect of peptide SEQ ID NO:1 on liver damage, we used chronic liver fibrosis model (rat CC14 model) for efficacy evaluation.
Rat CC14 liver damage model
(1) Control group: saline, sc, 2 ml/kg, 10 rats
(2) model group: 40% CC14, sc, 2 ml/kg, 17 rats
(3) Gan-li-xin group: 25 mg/kg, iv, 10 ml/kg, 15 rats
(4) Prevention, high dose group: 50 μg peptide SEQ ID NO:1/kg, iv, 10 ml/kg, 17 rats
(5) Prevention, low dose group: 10 μg peptide SEQ ID NO:1/kg, iv, 10 ml/kg, 17 rats
(6) Treatment, high dose group: 100 μg peptide SEQ ID NO:1/kg, iv, 10 ml/kg, 17 rats
(7) Treatment, high dose group: 20 μg peptide SEQ ID NO:1/kg, iv, 10 ml/kg, 17 rats
Except for control group, inject 40% CC14 subcutaneously twice (Tuesday, and Friday) every week in Group (2) to (6), drug volume (0.2 ml/100 g, the first time 0.5 ml/100 g). CC14 Model construction is 6 weeks. Parallel to the model construction, inject intravenously peptide SEQ ID NO:1 at 50 μg/kg and 10 μg/kg in group (4) and (5), respectively, once a day for 6 weeks. For Group (3), (6), and (7), starting from week 5, inject Gan-li-xin 25 mg/kg, peptide SEQ ID NO:1 at 100 μg/kg and 20 μg/kg, respectively, once a day, continuously for 2 weeks.
All rats were weighed once a week during model construction and drug injection. According to weight, the dose of drugs is adjusted. 24 hours after the last time of CC14 injection, liver weight parameters were examined.
Blood was extracted from femoral artery and serum was separated. The following parameters were examined: serum alanine aminotransferase (ALT), aspartate aminotransferase (AST), Bilirubin (TB), Alkaline phosphatase (ALP), total protein (TP), albumin (ALB), globulin (G), albumin/globulin ratio (A/G), glucose (GLU), total cholesterol (TCH), triglyceride (TG).
Liver homogenate: to examine cholesterol (TCH), triglyceride (TG), alanine aminotransferase (ALT), and aspartate aminotransferase (AST).
[…], dry at 110 C, examine Hydroxyproline (HPA).
Part of the liver is fixed in formalin for histology examination.

The subject of another test is liver cancer (H22). The test can be described thus: Xenograph liver cancer nude mice model (H22). It counts as in vivo. As to conditions: H22, positive control, 10 mg/kg. As to the method: as §1, §2, §3, §4
The test system of test [3] is human breast cancer MDA-MB-435. The test is described as follows: Human breast cancer MDA-MB-435 xenograph nude mice. It counts as in vivo. As to conditions: positive control, 20 mg/kg, once a week, 4 weeks. As to the method:
as §1, §2, §3, §4
Peptide SEQ ID No:1 was given through tail vein (IV), at dosing of 2 mg/kg, 1 mg/kg, 0.5 mg/kg, 6 times a week. Docetaxol was positive control, at dosing of 20 mg/kg, once a week. Negative control was given saline solution. The xenograph nude mice were treated for 4 weeks.

The next test deals with human lung cancer A549. The test can be described thus: Human lung cancer A549 xenograph nude mice. It counts as in vivo. The conditions noted are these: positive control, 20 mg/kg, once a week, 3 weeks. The procedure: as §1, §2, §3, §4
Peptide SEQ ID No:1 was given through tail vein (IV), at dosing of 0.5 mg/kg, 0.25 mg/kg, and 0.125 mg/kg, 6 times a week. Docetaxol was positive control, at dosing of 20 mg/kg, once a week. Negative control was given saline solution. The xenograph nude mice were treated for 3 weeks.

For the compound `O=c1[nH]cc(F)c(=O)[nH]1` [Peptide 5-FU, reference compound], the “T/C(%) relative tumor inhibition rate” value in test [1] is 68.71%.
As for `CC1(C)[C@@H](O[C@H]2O[C@H](C(=O)O)[C@@H](O)[C@H](O)[C@H]2O[C@@H]2O[C@H](C(=O)O)[C@@H](O)[C@H](O)[C@H]2O)CC[C@]2(C)[C@H]3C(=O)C=C4[C@@H]5C[C@@](C)(C(=O)O)CC[C@]5(C)CC[C@@]4(C)[C@]3(C)CC[C@@H]12.N.N` [Gan-li-xin, Diammonium glycyrrhizinate, reference compound], in test [2], the “ALB (albumin), serum” value was 17.9 ± 2.5 g/L; the “ALP (alkaline phosphatase), serum” value came out at 351.6 ± 134.1 IU/L; the “ALT (alanine aminotransferase), serum” value was 73.6 ± 25 IU/L; the “AST (aspartate aminotransferase), serum” value is given as 253.3 ± 69.3 IU/L. Also, in test [2], the “Bilirubin, serum” value stood at 3.3 ± 0.6 µmol/L; the “GLU (glucose), serum” value came out at 5.4 ± 0.7 mmol/L; the Liver parameters is reported as 4.4 ± 0.6; the Liver weight stood at 11.6 ± 3.5 g. Besides, in test [2], the “TCH (total cholesterol), serum” value came out at 1.7 ± 0.5 mmol/L; the “TG (triglyceride), serum” value came to 0.7 ± 0.3 mmol/L; the “TP (total protein), serum” value is recorded as 64.8 ± 5.4 g/L; the “hydroxyproline amount in rat liver” value amounted to 0.191 ± 0.038 ug/mg wet weight.
In the case of `CC(=O)O[C@H]1C(=O)[C@@]2(C)[C@H]([C@H](OC(=O)c3ccccc3)[C@]3(O)C[C@H](OC(=O)[C@H](O)[C@@H](NC(=O)c4ccccc4)c4ccccc4)C(C)=C1C3(C)C)[C@]1(OC(C)=O)CO[C@@H]1C[C@@H]2O` [Taxol, reference compound], the “inhibition rate, tumor” value with liver cancer (H22) is recorded as around 67.8%.
Take `CC(=O)O[C@@]12CO[C@@H]1C[C@H](O)[C@@]1(C)C(=O)[C@H](O)C3=C(C)[C@@H](OC(=O)[C@H](O)[C@@H](NC(=O)OC(C)(C)C)c4ccccc4)C[C@@](O)([C@@H](OC(=O)c4ccccc4)[C@H]21)C3(C)C` [docetaxel, reference compound]: the results for the “T/C(%) relative tumor inhibition rate” value (in test [3]; in the test with human lung cancer A549) were 16.51% and 18.60%, respectively.
